Measurements: paper PMC8330742, “New benzothieno[2,3-c]pyridines as non-steroidal CYP17 inhibitors: design, synthesis, anticancer screening, apoptosis induction, and in silico ADME profile studies” (Journal of Enzyme Inhibition and Medicinal Chemistry, 2021)

Key:
HCT-116 = experiment: NCI-60 SRB screen; type: cell-based, human; conditions: HCT-116; single dose 10^−5 M
NCI-H226 = experiment: NCI-60 SRB screen; type: cell-based, human; conditions: NCI-H226; single dose 10^−5 M
LOX IMVI = experiment: NCI-60 SRB screen; type: cell-based, human; conditions: single dose 10^−5 M
A549/ATCC = experiment: NCI-60 SRB screen; type: cell-based, human; conditions: single dose 10^−5 M
NCI-H522 = experiment: NCI-60 SRB screen; type: cell-based, human; conditions: NCI-H522; single dose 10^−5 M
U251 = experiment: NCI-60 SRB screen; type: cell-based, human; conditions: U251; single dose 10^−5 M
SR = experiment: NCI-60 SRB screen; type: cell-based; conditions: single dose 10^−5 M
UACC-62 = experiment: NCI-60 SRB screen; type: cell-based, human; conditions: UACC-62; single dose 10^−5 M
HCT-15 = experiment: NCI-60 SRB screen; type: cell-based, human; conditions: HCT-15; single dose 10^−5 M
UO-31 = experiment: NCI-60 SRB screen; type: cell-based, human; conditions: UO-31; single dose 10^−5 M
KM12 = experiment: NCI-60 SRB screen; type: cell-based, human; conditions: KM12; single dose 10^−5 M
SK-MEL-28 = experiment: NCI-60 SRB screen; type: cell-based; conditions: SK-MEL-28; single dose 10^−5 M
SN12C = experiment: NCI-60 SRB screen; type: cell-based, human; conditions: SN 12 C; single dose 10^−5 M
SK-MEL-5 = experiment: NCI-60 SRB screen; type: cell-based, human; conditions: SK-MEL-5; single dose 10^−5 M
CAKI-1 = experiment: NCI-60 SRB screen; type: cell-based, human; conditions: CAKI-1; single dose 10^−5 M
OVCAR-4 = experiment: NCI-60 SRB screen; type: cell-based, human; conditions: OVCAR-4; single dose 10^−5 M
HOP-92 = experiment: NCI-60 SRB screen; type: cell-based, human; conditions: HOP-92; single dose 10^−5 M
SNB-19 = experiment: NCI-60 SRB screen; type: cell-based; conditions: SNB-19; single dose 10^−5 M
786-0 = experiment: NCI-60 SRB screen; type: cell-based; conditions: 786-0; single dose 10^−5 M
SF-268 = experiment: NCI-60 SRB screen; type: cell-based, human; conditions: SF-268; single dose 10^−5 M
SNB-75 = experiment: NCI-60 SRB screen; type: cell-based, human; conditions: SNB-75; single dose 10^−5 M
EKVX = experiment: NCI-60 SRB screen; type: cell-based, human; conditions: single dose 10^−5 M
SF-295 = experiment: NCI-60 SRB screen; type: cell-based, human; conditions: SF-295; single dose 10^−5 M
MALME-3M = experiment: NCI-60 SRB screen; type: cell-based, human; conditions: single dose 10^−5 M
COLO 205 = experiment: NCI-60 SRB screen; type: cell-based, human; conditions: COLO 205; single dose 10^−5 M
SF-539 = experiment: NCI-60 SRB screen; type: cell-based, human; conditions: SF-539; single dose 10^−5 M
ACHN = experiment: NCI-60 SRB screen; type: cell-based; conditions: single dose 10^−5 M
RXF 393 = experiment: NCI-60 SRB screen; type: cell-based, human; conditions: RXF 393; single dose 10^−5 M
IGROV1 = experiment: NCI-60 SRB screen; type: cell-based, human; conditions: IGROV1; single dose 10^−5 M
CCRF-CEM = experiment: NCI-60 SRB screen; type: cell-based; conditions: single dose 10^−5 M
SW-620 = experiment: NCI-60 SRB screen; type: cell-based; conditions: SW-620; single dose 10^−5 M
NCI-H460 = experiment: NCI-60 SRB screen; type: cell-based, human; conditions: NCI-H460; single dose 10^−5 M
A498 = experiment: NCI-60 SRB screen; type: cell-based, human; conditions: A498; single dose 10^−5 M
NCI/ADR-RES = experiment: NCI-60 SRB screen; type: cell-based, human; conditions: single dose 10^−5 M
NCI-H322M = experiment: NCI-60 SRB screen; type: cell-based, human; conditions: single dose 10^−5 M
SK-MEL-2 = experiment: NCI-60 SRB screen; type: cell-based, human; conditions: SK-MEL-2; single dose 10^−5 M
HOP-62 = experiment: NCI-60 SRB screen; type: cell-based, human; conditions: HOP-62; single dose 10^−5 M
HCC-2998 = experiment: NCI-60 SRB screen; type: cell-based, human; conditions: HCC-2998; single dose 10^−5 M
OVCAR-5 = experiment: NCI-60 SRB screen; type: cell-based, human; conditions: OVCAR-5; single dose 10^−5 M
TK-10 = experiment: NCI-60 SRB screen; type: cell-based, human; conditions: TK-10; single dose 10^−5 M
HT-29 = experiment: NCI-60 SRB screen; type: cell-based; conditions: HT-29; single dose 10^−5 M
NCI-H23 = experiment: NCI-60 SRB screen; type: cell-based, human; conditions: NCI-H23; single dose 10^−5 M
OVCAR-3 = experiment: NCI-60 SRB screen; type: cell-based, human; conditions: OVCAR-3; single dose 10^−5 M
K-562 = experiment: NCI-60 SRB screen; type: cell-based, human; conditions: K-562; single dose 10^−5 M
RPMI-8226 = experiment: NCI-60 SRB screen; type: cell-based; conditions: RPMI-8226; single dose 10^−5 M
OVCAR-8 = experiment: NCI-60 SRB screen; type: cell-based, human; conditions: OVCAR-8; single dose 10^−5 M
HL-60(TB) = experiment: NCI-60 SRB screen; type: cell-based, human; conditions: HL-60 (TB); single dose 10^−5 M
SK-OV-3 = experiment: NCI-60 SRB screen; type: cell-based, human; conditions: SK-OV-3; single dose 10^−5 M
M14 = experiment: NCI-60 SRB screen; type: cell-based, human; conditions: M14; single dose 10^−5 M
UACC-257 = experiment: NCI-60 SRB screen; type: cell-based, human; conditions: UACC-275 (so in the source); single dose 10^−5 M
MOLT-4 = experiment: NCI-60 SRB screen; type: cell-based; conditions: MOLT-4; single dose 10^−5 M
[1] = tested on: panel of 60 cancer cell lines; experiment: NCI-60 SRB screen, mean or range over the panel; type: cell-based, human; conditions: mean over the cell lines; single dose 10^−5 M
MDA-MB-435 = experiment: NCI-60 SRB screen; type: cell-based; conditions: MDA-MB435; single dose 10^−5 M

## O=C1Cc2c(sc3c(F)cccc23)C(c2ccccc2[N+](=O)[O-])N1 (centres unmarked) [Compound 3c]
HCT-116
  Growth inhibition (%): 14.07%
NCI-H226
  Growth inhibition (%): 20.72%
LOX IMVI
  Growth inhibition (%): 2.71%
A549/ATCC
  Growth inhibition (%): −5.43%
NCI-H522
  Growth inhibition (%): −1.98%
U251
  Growth inhibition (%): 14.88%
SR
  Growth inhibition (%): 0.60%
UACC-62
  Growth inhibition (%): 12.83%
HCT-15
  Growth inhibition (%): −10.00%
UO-31
  Growth inhibition (%): 30.62%
KM12
  Growth inhibition (%): −0.49%
SK-MEL-28
  Growth inhibition (%): −20.20%
SN12C
  Growth inhibition (%): 0.94%
SK-MEL-5
  Growth inhibition (%): 2.72%
CAKI-1
  Growth inhibition (%): 24.17%
OVCAR-4
  Growth inhibition (%): 7.00%
HOP-92
  Growth inhibition (%): 7.78%
SNB-19
  Growth inhibition (%): −0.33%
786-0
  Growth inhibition (%): −9.68%
SF-268
  Growth inhibition (%): 6.16%
SNB-75
  Growth inhibition (%): 10.03%
EKVX
  Growth inhibition (%): 15.84%
SF-295
  Growth inhibition (%): −0.58%
MALME-3M
  Growth inhibition (%): 5.53%
COLO 205
  Growth inhibition (%): −12.74%
SF-539
  Growth inhibition (%): 10.42%
ACHN
  Growth inhibition (%): −0.56%
RXF 393
  Growth inhibition (%): −24.83%
IGROV1
  Growth inhibition (%): 34.55%
CCRF-CEM
  Growth inhibition (%): −10.16%
SW-620
  Growth inhibition (%): 20.70%
NCI-H460
  Growth inhibition (%): 23.13%
A498
  Growth inhibition (%): −15.47%
NCI/ADR-RES
  Growth inhibition (%): −5.76%
NCI-H322M
  Growth inhibition (%): 1.00%
SK-MEL-2
  Growth inhibition (%): −25.53%
HOP-62
  Growth inhibition (%): 8.52%
HCC-2998
  Growth inhibition (%): −18.72%
OVCAR-5
  Growth inhibition (%): −8.05%
TK-10
  Growth inhibition (%): −41.81%
HT-29
  Growth inhibition (%): −12.09%
NCI-H23
  Growth inhibition (%): 1.41%
OVCAR-3
  Growth inhibition (%): 2.18%
K-562
  Growth inhibition (%): 2.86%
RPMI-8226
  Growth inhibition (%): 4.62%
OVCAR-8
  Growth inhibition (%): −7.33%
HL-60(TB)
  Growth inhibition (%): −15.87%
SK-OV-3
  Growth inhibition (%): 6.94%
M14
  Growth inhibition (%): −0.72%
UACC-257
  Growth inhibition (%): −19.98%
MOLT-4
  Growth inhibition (%): −5.89%
[1]
  Mean growth inhibition (%): 1.33%
MDA-MB-435
  Growth inhibition (%): −7.97%
